# How the values were obtained:
# [1] = Inhibition of human 20S proteasome
# [2] = tested on: HT-29; experiment: Inhibition of 20S proteasome in human HT-29 cells at 6.7 uM by luminescence-based assay; format: cell-based
# [3] = tested on: HT-29; experiment: Cytotoxicity against human HT-29 cells; format: cell-based
# [4] = Metabolic stability of the compound in human HT-29 cells; format: ADME, cell-based; conditions: read-out: Stability (converted)
# [5] = Chemical stability of the compound; format: physicochemical
# [6] = tested on: HT-29; experiment: Inhibition of 20S proteasome in human HT-29 cells; format: cell-based
Structure (SMILES),IC50 [1],inhibition [2],Activity [3],half-life [4],Stability [5],ED50 [6]
CCCCC[C@H]1CC(=O)N[C@@H](CO)C(=O)N[C@@H](Cc2ccccc2)C(=O)N[C@@H](Cc2ccc(O)cc2)C(=O)N[C@H](CCCNC(N)=O)C(=O)N[C@@H](CC(=O)O)C(=O)O1 [scytonemides B],> 50 µM,,,,,
CC[C@H](C)[C@H]1NC(=O)[C@@H](CCC(N)=O)NC(=O)CNC(=O)[C@H](Cc2ccc(O)cc2)/N=C/[C@H](CC(C)C)NC(=O)[C@H](C(C)C)NC(=O)[C@H](CO)NC1=O [SCYTONEMIDES A],,80%,Non-toxic,2 h,3 days,> 20 µg/mL

# Source: ChEMBL document CHEMBL1641403, “Scytonemides A and B, cyclic peptides with 20S proteasome inhibitory activity from the cultured cyanobacterium Scytonema hofmanii” (J Nat Prod, 2010)
